Values quoted from earlier work, collected in patent US20070248684A1, “Pharmaceutical formulations of oxcarbazepine and methods for its preparation” (priority 2006, published 2007).

Conditions: in words

Q: With NC(=O)N1c2ccccc2CC(=O)c2ccccc21 [Oxcarbazepine, 10-oxo-10,11-dihydro-5H-dibenz[b,f]azepine-5-carboxamide] as the compound, how does the solubility in water read?
A: practically insoluble
